{"source": "paper PMC6496074", "about": "“The Evolution of Azole Resistance in Candida albicans Sterol 14α-Demethylase (CYP51) through Incremental Amino Acid Substitutions” (Antimicrobial Agents and Chemotherapy, 2019)", "test_in_all_cases": "CYP51 reconstitution assay", "format_in_all_cases": "biochemical", "key": {"[1]": {"biological_target": "T1, CaCYP51 Y132F+F145L (Candida albicans, UniProt P10613, F145L/Y132F)", "T1 construct": "made in house; host or cells: E. coli DH5α (pCWori+)", "settings": "0.25 h, read-out: Residual CYP51 activity (%) ± SD", "description": "(§1) Azole antifungal agents were added in 2.5 μl dimethyl sulfoxide, followed by 10 min of incubation at 37°C prior to assay initiation with 4 mM β-NADPH-Na4. The samples were then shaken for 15 min at 37°C. Sterol metabolites were recovered by extraction with ethyl acetate, followed by derivatization with 0.1 ml N,O-bis(trimethylsilyl)trifluoroacetamide (BSTFA)–trimethylchlorosilane (TMCS) (99:1) and 0.3 ml anhydrous pyridine (2 h at 80°C), prior to analysis by gas chromatography-mass spectrometry (GC-MS) ([52]). IC50 determinations were performed in duplicate."}, "[2]": {"biological_target": "T2, CaCYP51 Y132F+K143R (Candida albicans, UniProt P10613, K143R/Y132F)", "T2 construct": "made in house; host or cells: E. coli DH5α (pCWori+)", "settings": "0.25 h, read-out: Residual CYP51 activity (%) ± SD", "description": "as §1"}, "[3]": {"biological_target": "T3, CaCYP51 D278N (Candida albicans, UniProt P10613, D278N)", "T3 construct": "made in house; host or cells: E. coli DH5α (pCWori+)", "settings": "0.25 h, 4 μM triazole, % of activity without triazole, read-out: Residual CYP51 activity (%) ± SD", "description": "as §1"}, "[4]": {"biological_target": "T4, CaCYP51 D278N+G464S (Candida albicans, UniProt P10613, D278N/G464S)", "T4 construct": "made in house; host or cells: E. coli DH5α (pCWori+)", "settings": "0.25 h, 4 μM triazole, % of activity without triazole, read-out: Residual CYP51 activity (%) ± SD", "description": "as §1"}, "[5]": {"biological_target": "T5, CaCYP51 F126V (Candida albicans, UniProt P10613, F126V)", "T5 construct": "made in house; host or cells: E. coli DH5α (pCWori+)", "settings": "0.25 h, 4 μM triazole, % of activity without triazole, read-out: Residual CYP51 activity (%) ± SD", "description": "as §1"}, "[6]": {"biological_target": "T6, CaCYP51 F145L (Candida albicans, UniProt P10613, F145L)", "T6 construct": "made in house; host or cells: E. coli DH5α (pCWori+)", "T6 sequence (P10613 whole entry, looked up, stated change not applied)": "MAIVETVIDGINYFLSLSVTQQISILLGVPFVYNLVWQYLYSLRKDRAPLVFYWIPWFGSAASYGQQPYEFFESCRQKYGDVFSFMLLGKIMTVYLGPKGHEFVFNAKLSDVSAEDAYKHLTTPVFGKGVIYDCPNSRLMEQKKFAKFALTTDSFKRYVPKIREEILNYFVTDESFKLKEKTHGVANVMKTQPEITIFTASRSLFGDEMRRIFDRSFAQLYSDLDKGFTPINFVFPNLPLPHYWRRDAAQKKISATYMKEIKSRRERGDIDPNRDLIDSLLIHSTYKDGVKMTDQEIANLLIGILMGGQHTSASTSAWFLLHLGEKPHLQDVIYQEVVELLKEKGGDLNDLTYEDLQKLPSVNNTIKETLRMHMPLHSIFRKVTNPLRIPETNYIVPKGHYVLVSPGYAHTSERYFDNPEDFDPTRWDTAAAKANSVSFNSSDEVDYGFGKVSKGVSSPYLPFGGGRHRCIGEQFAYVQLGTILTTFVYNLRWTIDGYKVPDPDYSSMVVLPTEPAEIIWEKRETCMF", "settings": "0.25 h, 4 μM triazole, % of activity without triazole, read-out: Residual CYP51 activity (%) ± SD", "description": "as §1"}, "[7]": {"biological_target": "T7, CaCYP51 F449Y (Candida albicans, UniProt P10613, F449Y)", "T7 construct": "made in house; host or cells: E. coli DH5α (pCWori+)", "settings": "0.25 h, 4 μM triazole, % of activity without triazole, read-out: Residual CYP51 activity (%) ± SD", "description": "as §1"}, "[8]": {"biological_target": "T8, CaCYP51 G307S (Candida albicans, UniProt P10613, G307S)", "T8 construct": "made in house; host or cells: E. coli DH5α (pCWori+)", "settings": "0.25 h, 4 μM triazole, % of activity without triazole, read-out: Residual CYP51 activity (%) ± SD", "description": "as §1"}, "[9]": {"biological_target": "T9, CaCYP51 G307S+G450E (Candida albicans, UniProt P10613, G307S/G450E)", "T9 construct": "made in house; host or cells: E. coli DH5α (pCWori+)", "settings": "0.25 h, 4 μM triazole, % of activity without triazole, read-out: Residual CYP51 activity (%) ± SD", "description": "as §1"}, "[10]": {"biological_target": "T10, CaCYP51 G448E (Candida albicans, UniProt P10613, G448E)", "T10 construct": "made in house; host or cells: E. coli DH5α (pCWori+)", "T10 sequence (P10613 whole entry, looked up, stated change not applied)": "as above", "settings": "0.25 h, 4 μM triazole, % of activity without triazole, read-out: Residual CYP51 activity (%) ± SD", "description": "as §1"}, "[11]": {"biological_target": "T11, CaCYP51 G450E (Candida albicans, UniProt P10613, G450E)", "T11 construct": "made in house; host or cells: E. coli DH5α (pCWori+)", "T11 sequence (P10613 whole entry, looked up, stated change not applied)": "as above", "settings": "0.25 h, 4 μM triazole, % of activity without triazole, read-out: Residual CYP51 activity (%) ± SD", "description": "as §1"}, "[12]": {"biological_target": "T12, CaCYP51 G464S (Candida albicans, UniProt P10613, G464S)", "T12 construct": "made in house; host or cells: E. coli DH5α (pCWori+)", "settings": "0.25 h, 4 μM triazole, % of activity without triazole, read-out: Residual CYP51 activity (%) ± SD", "description": "as §1"}, "[13]": {"biological_target": "T13, CaCYP51 I471T (Candida albicans, UniProt P10613, I471T)", "T13 construct": "made in house; host or cells: E. coli DH5α (pCWori+)", "T13 sequence (P10613 whole entry, looked up, stated change not applied)": "as above", "settings": "0.25 h, 4 μM triazole, % of activity without triazole, read-out: Residual CYP51 activity (%) ± SD", "description": "as §1"}, "[14]": {"biological_target": "T14, CaCYP51 K143R (Candida albicans, UniProt P10613, K143R)", "T14 construct": "made in house; host or cells: E. coli DH5α (pCWori+)", "T14 sequence (P10613 whole entry, looked up, stated change not applied)": "as above", "settings": "0.25 h, 4 μM triazole, % of activity without triazole, read-out: Residual CYP51 activity (%) ± SD", "description": "as §1"}, "[15]": {"biological_target": "T15, CaCYP51 P230L (Candida albicans, UniProt P10613, P230L)", "T15 construct": "made in house; host or cells: E. coli DH5α (pCWori+)", "settings": "0.25 h, 4 μM triazole, % of activity without triazole, read-out: Residual CYP51 activity (%) ± SD", "description": "as §1"}, "[16]": {"biological_target": "T16, CaCYP51 Q474K (Candida albicans, UniProt P10613, Q474K)", "T16 construct": "made in house; host or cells: E. coli DH5α (pCWori+)", "settings": "0.25 h, 4 μM triazole, % of activity without triazole, read-out: Residual CYP51 activity (%) ± SD", "description": "as §1"}, "[17]": {"biological_target": "T17, CaCYP51 R467K (Candida albicans, UniProt P10613, R467K)", "T17 construct": "made in house; host or cells: E. coli DH5α (pCWori+)", "settings": "0.25 h, 4 μM triazole, % of activity without triazole, read-out: Residual CYP51 activity (%) ± SD", "description": "as §1"}, "[18]": {"biological_target": "T18, CaCYP51 S279F (Candida albicans, UniProt P10613, S279F)", "T18 construct": "made in house; host or cells: E. coli DH5α (pCWori+)", "T18 sequence (P10613 whole entry, looked up, stated change not applied)": "as above", "settings": "0.25 h, 4 μM triazole, % of activity without triazole, read-out: Residual CYP51 activity (%) ± SD", "description": "as §1"}, "[19]": {"biological_target": "T19, CaCYP51 S405F (Candida albicans, UniProt P10613, S405F)", "T19 construct": "made in house; host or cells: E. coli DH5α (pCWori+)", "settings": "0.25 h, 4 μM triazole, % of activity without triazole, read-out: Residual CYP51 activity (%) ± SD", "description": "as §1"}, "[20]": {"biological_target": "T20, CaCYP51 V456I (Candida albicans, UniProt P10613, V456I)", "T20 construct": "made in house; host or cells: E. coli DH5α (pCWori+)", "settings": "0.25 h, 4 μM triazole, % of activity without triazole, read-out: Residual CYP51 activity (%) ± SD", "description": "as §1"}, "[21]": {"biological_target": "T21, CaCYP51 V488I (Candida albicans, UniProt P10613, V488I)", "T21 construct": "made in house; host or cells: E. coli DH5α (pCWori+)", "T21 sequence (P10613 whole entry, looked up, stated change not applied)": "as above", "settings": "0.25 h, 4 μM triazole, % of activity without triazole, read-out: Residual CYP51 activity (%) ± SD", "description": "as §1"}, "[22]": {"biological_target": "T22, CaCYP51 Wild type (Candida albicans, UniProt P10613)", "T22 construct": "made in house; host or cells: E. coli DH5α (pCWori+)", "settings": "0.25 h; Wild type; 4 μM triazole; % of activity without triazole; read-out: Residual CYP51 activity (%) ± SD", "description": "as §1"}, "[23]": {"biological_target": "T23, CaCYP51 Y132F (Candida albicans, UniProt P10613, Y132F)", "T23 construct": "made in house; host or cells: E. coli DH5α (pCWori+)", "settings": "0.25 h, 4 μM triazole, % of activity without triazole, read-out: Residual CYP51 activity (%) ± SD", "description": "as §1"}, "[24]": {"biological_target": "T24, CaCYP51 Y132H (Candida albicans, UniProt P10613, Y132H)", "T24 construct": "made in house; host or cells: E. coli DH5α (pCWori+)", "settings": "0.25 h, 4 μM triazole, % of activity without triazole, read-out: Residual CYP51 activity (%) ± SD", "description": "as §1"}, "[25]": {"biological_target": "T25, CaCYP51 Y132H+K143R (Candida albicans, UniProt P10613, K143R/Y132H)", "T25 construct": "made in house; host or cells: E. coli DH5α (pCWori+)", "settings": "0.25 h, 4 μM triazole, % of activity without triazole, read-out: Residual CYP51 activity (%) ± SD", "description": "as §1"}, "[26]": {"biological_target": "T26, CaCYP51 Y257H (Candida albicans, UniProt P10613, Y257H)", "T26 construct": "made in house; host or cells: E. coli DH5α (pCWori+)", "T26 sequence (P10613 whole entry, looked up, stated change not applied)": "as above", "settings": "0.25 h, 4 μM triazole, % of activity without triazole, read-out: Residual CYP51 activity (%) ± SD", "description": "as §1"}, "[27]": {"biological_target": "T27, CaCYP51 Y447H (Candida albicans, UniProt P10613, Y447H)", "T27 construct": "made in house; host or cells: E. coli DH5α (pCWori+)", "T27 sequence (P10613 whole entry, looked up, stated change not applied)": "as above", "settings": "0.25 h, 4 μM triazole, % of activity without triazole, read-out: Residual CYP51 activity (%) ± SD", "description": "as §1"}}, "data": [{"compound": "C[C@@H](c1ncncc1F)[C@](O)(Cn1cncn1)c1ccc(F)cc1F", "note": "[Voriconazole, voriconazole]", "values": [{"measurement": "remaining activity at 4 µM", "setting": "[1]", "value": "13.6 ± 0.19", "unit": "%"}, {"measurement": "remaining activity at 4 µM", "setting": "[2]", "value": "8.86 ± 1.09", "unit": "%"}, {"measurement": "remaining activity at 4 µM", "setting": "[3]", "value": "1.34 ± 0.05", "unit": "%"}, {"measurement": "remaining activity at 4 µM", "setting": "[4]", "value": "4.79 ± 0.11", "unit": "%"}, {"measurement": "remaining activity at 4 µM", "setting": "[5]", "value": "0.19 ± 0.06", "unit": "%"}, {"measurement": "remaining activity at 4 µM", "setting": "[6]", "value": "0.37 ± 0.11", "unit": "%"}, {"measurement": "remaining activity at 4 µM", "setting": "[7]", "value": "0.56 ± 0.12", "unit": "%"}, {"measurement": "remaining activity at 4 µM", "setting": "[8]", "value": "0.41 ± 0.04", "unit": "%"}, {"measurement": "remaining activity at 4 µM", "setting": "[9]", "value": "0.41 ± 0.1", "unit": "%"}, {"measurement": "remaining activity at 4 µM", "setting": "[10]", "value": "1.89 ± 0.61", "unit": "%"}, {"measurement": "remaining activity at 4 µM", "setting": "[11]", "value": "3.5 ± 0.17", "unit": "%"}, {"measurement": "remaining activity at 4 µM", "setting": "[12]", "value": "0.1 ± 0.01", "unit": "%"}, {"measurement": "remaining activity at 4 µM", "setting": "[13]", "value": "0.92 ± 0.05", "unit": "%"}, {"measurement": "remaining activity at 4 µM", "setting": "[14]", "value": "3.12 ± 0.27", "unit": "%"}, {"measurement": "remaining activity at 4 µM", "setting": "[15]", "value": "0.13 ± 0.12", "unit": "%"}, {"measurement": "remaining activity at 4 µM", "setting": "[16]", "value": "0.34 ± 0.04", "unit": "%"}, {"measurement": "remaining activity at 4 µM", "setting": "[17]", "value": "0.52 ± 0.18", "unit": "%"}, {"measurement": "remaining activity at 4 µM", "setting": "[18]", "value": "6.15 ± 0.66", "unit": "%"}, {"measurement": "remaining activity at 4 µM", "setting": "[19]", "value": "1.94 ± 0.12", "unit": "%"}, {"measurement": "remaining activity at 4 µM", "setting": "[20]", "value": "0.79 ± 0.07", "unit": "%"}, {"measurement": "remaining activity at 4 µM", "setting": "[21]", "value": "0.13 ± 0.08", "unit": "%"}, {"measurement": "remaining activity at 4 µM", "setting": "[22]", "value": "0.11 ± 0.01", "unit": "%"}, {"measurement": "remaining activity at 4 µM", "setting": "[23]", "value": "1.09 ± 0.05", "unit": "%"}, {"measurement": "remaining activity at 4 µM", "setting": "[24]", "value": "0.33 ± 0.19", "unit": "%"}, {"measurement": "remaining activity at 4 µM", "setting": "[25]", "value": "39.6 ± 8.63", "unit": "%"}, {"measurement": "remaining activity at 4 µM", "setting": "[26]", "value": "0.63 ± 0.27", "unit": "%"}, {"measurement": "remaining activity at 4 µM", "setting": "[27]", "value": "2.07 ± 1.04", "unit": "%"}]}]}
